Reference: PubChem BioAssay AID743417 (Broad Institute, 2014)
Results filed as inconclusive are left out. Active and inactive are the calls of the source.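 The calls were made as follows: active = compounds lowering the luciferase signal with a fitted half-maximal dose at most twice their top valid dose (cut at about 30 µM in these data); inconclusive = flat fits with moderate signal loss, or poor fits; inactive = the rest.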

These molecules were tested on Clone20 osteoblast Shn3 3'UTR firefly luciferase, 24 h (assay: Schnurri-3 3'UTR-luciferase signal suppressors – cell-based, Clone20 osteoblasts, luminescence, dry powder, set 2, dose response (AID 743417)).
`O=C1N(c2ccccc2)C[C@@H]2C[C@@H](c3cc4ccccc4o3)N3CCC[C@@]123` was tested, and the AC50 was 0.536 µM.
For `COc1ccc(NS(=O)(=O)c2ccc(N3CCOCC3)c(N)c2)cc1`, the AC50 was 1.08 µM.
`NS(=O)(=O)c1ccc(CCNc2nn3c(-c4cccc(OC(F)(F)F)c4)cnc3s2)cc1` showed an AC50 of 3.93 µM.
`CCCCOc1ccc(Br)cc1CSC(=N)N` was tested, and the AC50 was 1.37 µM.
With `CCCC(=O)NC(c1ccc(N(C)C)cc1)c1ccc2cccnc2c1O` (stereo not given) the AC50 was 0.916 µM.
`CC(Sc1nc2ccccc2c(=O)n1C)C(=O)N(C)C1CCCCC1` (stereo not given) showed an AC50 of 2.27 µM.
`Cc1ccn2cc(-c3ccc(O)c(O)c3)nc2c1` gave an AC50 of 2.44 µM.
For `CC1CCCC(NC(=O)c2cccc(S(=O)(=O)N3CCN(c4ccccc4)CC3)c2)C1C` (stereo not given), the AC50 was 3.14 µM.
`CCCCN(c1nc2ccccc2nc1Cl)S(=O)(=O)c1ccc(C)cc1` was tested, and the AC50 was 7.22 µM.
Work on `Cc1c(C(=O)N(Cc2cccc(Br)c2)C2CCS(=O)(=O)C2)oc2ccccc12` (stereo not given) yielded an AC50 of 35.9 µM.
`O=C(NCCc1ccccc1)c1ccc2c(c1)OCCO2` gave an AC50 of 2.16 µM.
`Cc1cccc(C(=O)Nc2ccc(C(=O)/C=C/c3ccncc3)cc2)c1` showed an AC50 of 3.41 µM.
Work on `O=[N+]([O-])c1c(Nc2cccc(O)c2)cc(Cl)c2nonc12` yielded an AC50 of 0.683 µM.
For `COc1ccccc1-c1cc(C(F)(F)F)nc(S(=O)(=O)CCCC(=O)N2CCCCC2C)n1` (stereo not given), the AC50 was 2.65 µM.
Molecule `COc1ccc(Cc2nccc3cc(OC)c(OC)cc23)cc1OC` has an AC50 of 2.48 µM.
`CCN(CC)S(=O)(=O)c1cc(NC(=O)CNc2cccc(S(=O)(=O)N3CCOCC3)c2)ccc1C` gave an AC50 of 2.97 µM.
For `CCOC(=O)N1CCC(NC(=O)C2CCCN(Cc3nc(-c4cccc(C)c4)oc3C)C2)CC1` (stereo not given), the AC50 was 3.06 µM.
For `O=C(Nc1cccc(S(=O)(=O)Nc2ccc(Cl)cc2)c1)c1ccc(Cl)nc1`, the AC50 was 0.606 µM.
`CCS(=O)(=O)c1ncc(Cl)c(C(=O)Nc2ccc(S(=O)(=O)N(C)c3ccccc3)cc2)n1` was tested, and the AC50 was 0.308 µM.
For `COc1cccc(OCCn2cc(C(C)=O)c3ccccc32)c1`, the AC50 was 1.85 µM.
`CN1C(=O)c2cccc(NCCCCCCN3C(=O)c4ccccc4C3=O)c2C1=O` gave an AC50 of 5.57 µM.
Molecule `COc1ccc(-n2ncc3c(N4CCCCC4)ncnc32)cc1` has an AC50 of 2.87 µM.
Molecule `O=C(CN(C(=O)c1ccc(Cl)cc1)C1CCCCC1)Nc1ccc(Cl)c([N+](=O)[O-])c1` has an AC50 of 8.11 µM.
`Cc1ccc(Nc2c(-c3ccccn3)nc3cc(C)ccn23)cc1` showed an AC50 of 1.36 µM.
Work on `COc1cc2cc(C(=O)N3CC(COS(C)(=O)=O)c4ccc(O)cc43)[nH]c2c(OC)c1OC` (stereo not given) yielded an AC50 of under 0.26 µM.
`CC(C)Oc1ccc(S(=O)(=O)N2CCCCC2)cc1NC(=O)CN1CCCC1c1cccs1` (stereo not given) was tested, and the AC50 was 7.88 µM.
For `Cc1ccc(CNC(=O)c2cc(-c3ccccc3C)nn2CC2CC(c3cccnc3)=NO2)cc1` (stereo not given), the AC50 was > 70 µM (inactive).
`CN(C)c1ccc(/C=C/c2ccc3c4ccccc4ccc3[n+]2-c2ccccc2)cc1` was tested, and the AC50 was under 0.26 µM.
In the case of `CCCCC(=O)NC(c1ccc(N(CC)CC)cc1)c1ccc2cccnc2c1O` (stereo not given), the AC50 is reported as 1.12 µM.
With `O=[N+]([O-])c1ccc2ncnc(N3CCN(Cc4ccc5c(c4)OCO5)CC3)c2c1` the AC50 was 2.73 µM.
`CN(CCOc1ccc(Cl)cc1)C(=O)c1cccc(S(=O)(=O)N2CCN(Cc3ccccc3)CC2)c1` gave an AC50 of 2.29 µM.
With `CCOC(=O)N1CCN(S(=O)(=O)c2ccc(C(=O)Nc3nc4ccc(F)cc4s3)cc2)CC1` the AC50 was 4.79 µM.
For `CC(C)(C)c1cc(C(=O)N/N=C/c2ccccc2O)n(-c2ccccc2)n1`, the AC50 was 2.25 µM.
`Cc1cccc2sc(NNC(=O)c3ccc(S(=O)(=O)N4CC(C)CC(C)C4)cc3)nc12` (stereo not given) gave an AC50 of 2.57 µM.
For `CN(C)CCN1C(=O)c2cccc3cc([N+](=O)[O-])cc(c23)C1=O`, the AC50 was 1.11 µM.
`CN(C)C1=NC[C@H](Cc2ccccc2)N1CCCC1CCCC1` showed an AC50 of 2.63 µM.
`Cc1cc(Br)c2c(c1)/C(=C/C(=O)c1cccs1)C(=O)N2` gave an AC50 of 19.9 µM.
With `O=C(c1ccoc1)N1CCN(c2cc(-c3cccc(F)c3)nc3cc(-c4cccc(Cl)c4)nn23)CC1` the AC50 was 9.78 µM.
`CCS(=O)(=O)c1ccc2oc(SCC(=O)N3CCCCC3)nc2c1` was tested, and the AC50 was > 70 µM (inactive).
Work on `Cn1cc([N+](=O)[O-])c(C(=O)Nc2sc3c(c2C#N)CCC3)n1` yielded an AC50 of 0.88 µM.
Work on `Nc1ncnc2c1c(-c1ccc(Oc3ccccc3)cc1)cn2C1CCCC1` yielded an AC50 of 0.658 µM.
`NC(=O)CC(NC(=O)c1ccc(Br)cc1)c1ccc(N2CCCCCC2)c([N+](=O)[O-])c1` (stereo not given) was tested, and the AC50 was 7.66 µM.
In the case of `CCN(CC)S(=O)(=O)c1ccc(NC(=O)Nc2cccc(C(F)(F)F)c2)cc1`, the AC50 is reported as 5.6 µM.
Work on `CCN(c1ccccc1)S(=O)(=O)c1ccc(Cl)c(NC(=O)CN(C)Cc2cccc(F)c2)c1` yielded an AC50 of 8.78 µM.
`CSc1nnc(NC(=O)c2nc(S(=O)(=O)Cc3cccc(C)c3)ncc2Cl)s1` was tested, and the AC50 was 4.03 µM.
Work on `CC(C)NC(=O)C1CCN(C(=O)c2cc3sccc3n2Cc2ccc(F)cc2)CC1` yielded an AC50 of 5.05 µM.
In the case of `COc1ccccc1C(NC(C)=O)c1cc(Cl)c2cccnc2c1O` (stereo not given), the AC50 is reported as 2.56 µM.
For `Cc1ccnc2c1ccc1c(C)ccnc12`, the AC50 was 0.857 µM.
In the case of `CCC(=O)c1ccc(OCc2ccc(C(=O)c3ccccc3)cc2)cc1`, the AC50 is reported as 3.29 µM.
`COc1cccc(C(NC(C)=O)c2ccc3cccnc3c2O)c1` (stereo not given) showed an AC50 of 1.39 µM.
`CCOC(=O)C1(Cc2ccc(Cl)cc2)CCN(C(C)Cc2ccc(O)c(OC)c2)CC1` (stereo not given) showed an AC50 of 1.33 µM.
For `CCc1ccc(OCC(=O)NC(NC(=S)Nc2ccc(Cl)cc2)C(Cl)(Cl)Cl)cc1` (stereo not given), the AC50 was 4.96 µM.
With `N#Cc1ccc(NC(=O)Nc2ccc(Oc3ccc(NC(=O)Nc4ccc(C#N)cc4)cc3)cc2)cc1` the AC50 was 2.68 µM.
`CCOc1ccccc1NC(=O)c1nc(S(=O)(=O)Cc2ccccc2)ncc1Cl` showed an AC50 of 0.376 µM.
`CCOC(=O)CS(=O)(=O)c1nc(-c2ccccc2)cc(C(F)(F)F)n1` showed an AC50 of 3.42 µM.
Molecule `CCCn1c(NC(=O)c2ccc(Cl)c(S(=O)(=O)N3CCCC3)c2)nc2ccccc21` has an AC50 of 8.39 µM.
`Cn1c(SCc2ccc(F)cc2Cl)nc2ccccc2c1=O` was tested, and the AC50 was 8.65 µM.
`CCOC(=O)c1c2c(n(Cc3ccccc3)c1C)C(=O)C(=O)c1ccccc1-2` was tested, and the AC50 was 2.3 µM.
In the case of `CCn1c2ccccc2c2cc(CNCc3ccc(OC)cc3OC)ccc21`, the AC50 is reported as 14.7 µM.
Work on `CCCCCCCN1C(Nc2ccccc2)=NC[C@@H]1Cc1ccccc1` yielded an AC50 of 4.82 µM.
Work on `Cc1ccc(S(=O)(=O)Nc2ccc(O)c3ncccc23)cc1` yielded an AC50 of 1.55 µM.
In the case of `C=CCC[C@H](Cc1ccc(F)cc1)C(=O)OC[C@H](Cc1c[nH]c2ccccc12)NC(=O)[C@H](CC=C)CC(=O)N(CCO)Cc1ccccc1`, the AC50 is reported as 11.7 µM.
Work on `COc1cccc(C2CC(c3ccc(C)cc3)=NN2C(=O)c2ccccc2F)c1OC` (stereo not given) yielded an AC50 of 36 µM.
`Cn1nc(C(C)(C)C)cc1C(=O)NCc1ccc2c(c1)OCO2` gave an AC50 of 1.17 µM.
In the case of `Cc1ccc(S(=O)(=O)CC2CSc3nc4ccccc4n32)cc1` (stereo not given), the AC50 is reported as 0.347 µM.
`CCC(NC(=O)Nc1nnc(C(F)(F)F)s1)(C(F)(F)F)C(F)(F)F` showed an AC50 of 4.15 µM.
`CCCCNc1cccc2c1S(=O)(=O)N(CCCC)CC(COCc1ccccc1)O2` (stereo not given) showed an AC50 of 8.93 µM.
For `CCOC(=O)COc1ccc2ccccc2c1/C=C/[N+](=O)[O-]`, the AC50 was 5.2 µM.
`CC(C)(C)[C@@H]1COC(=O)[C@@H](NC(=O)OCC2c3ccccc3-c3ccccc32)C/C=C\C[C@@H](CC(=O)NCCO)C(=O)N1` gave an AC50 of 22.1 µM.
With `O=C(Nc1cc2c3c(c1)C1CCCC1CN3CC1CCCC21)c1ccc([N+](=O)[O-])cc1` (stereo not given) the AC50 was 2.2 µM.
`CC(=O)C1(C)CCC2C3C=C(C)C4=CC(=O)CCC4(C)C3CCC21C` (stereo not given) was tested, and the AC50 was 9.83 µM.
With `COc1ccc(CC(=O)Nc2cccc(S(=O)(=O)N3CCCCCC3)c2)cc1OC` the AC50 was 2.27 µM.
For `O=C(Nc1cccc(C(F)(F)F)c1)c1sc(Cl)nc1C(F)(F)F`, the AC50 was 9.06 µM.
Molecule `Cn1c(/C=C/c2ccc([N+](=O)[O-])o2)nc2ccccc2c1=O` has an AC50 of 2.37 µM.
`CN(CC(=O)Nc1ccccc1Cl)C(=O)c1cccc(S(=O)(=O)N2CCN(Cc3ccccc3)CC2)c1` gave an AC50 of 3.47 µM.
`CSc1nnc(NC(=O)c2nc(S(=O)(=O)Cc3ccc(C)cc3)ncc2Cl)s1` gave an AC50 of 3.18 µM.
With `C[C@H](NC(=O)c1nc[nH]c1C(=O)NCc1ccc(CNC(=O)OC(C)(C)C)cc1)c1ccccc1` the AC50 was 11.7 µM.
Work on `C=C(C)[C@@H]1C2=CC(C(=O)OC)=C(C[C@H](C(=C)C)[C@H]3O[C@H]3C3=C[C@H]1OC3=O)O2` yielded an AC50 of 8.16 µM.
For `C/C1=C\[C@@H](C)C/C=C/[C@H]2[C@@H]3O[C@]3(C)[C@@H](C)[C@H]3[C@H](Cc4c[nH]c5ccccc45)NC(=O)[C@]32C(=O)/C=C/C(=O)[C@@H]1O`, the AC50 was 6.44 µM.
In the case of `CCC(=O)OCCNc1cc(Sc2nccn2C)c2nonc2c1[N+](=O)[O-]`, the AC50 is reported as 1.55 µM.
For `CCCC(=O)NC(c1ccc(Cl)cc1Cl)c1ccc2cccnc2c1O` (stereo not given), the AC50 was 0.638 µM.
`Cc1ccc(CNc2nc(NCC3CC3)nc3ccsc23)c(C)c1` showed an AC50 of 3.95 µM.
`O=C(Nc1cccc(C(F)(F)F)c1)Nc1ccc(N2CCCC2)c(S(=O)(=O)Nc2ccccc2Cl)c1` showed an AC50 of 4.42 µM.
`Cc1oc(-c2ccc(Cl)cc2)nc1CS(=O)CC(=O)NCCCN1CCN(Cc2ccccc2)CC1` (stereo not given) gave an AC50 of 2.52 µM.
`C=C1C(=O)c2sccc2C(c2ccc(OC)c(OC)c2)C1COC(C)=O` (stereo not given) gave an AC50 of 0.662 µM.
For `COc1ccccc1CNc1nc(Nc2cccc(-c3cnco3)c2)c2sccc2n1`, the AC50 was 5.61 µM.
`O=C(Nc1ccc(Cl)cc1)c1cc(S(=O)(=O)N2CCOCC2)cs1` gave an AC50 of 4.23 µM.
Work on `Cc1ccc2nnn(Cc3cccc(C(C)(C)C)c3O)c2c1` yielded an AC50 of 5.44 µM.
For `Cn1nc(-c2ccc(OCC(=O)N3CCN(Cc4ccccc4)CC3)cc2)c2ccccc2c1=O`, the AC50 was 2.1 µM.
`O=C(NNC(=O)C1CCN(S(=O)(=O)c2ccc(Cl)cc2)CC1)c1ccccc1O` showed an AC50 of 18.5 µM.
`Cc1cc(Nc2cccc([N+](=O)[O-])c2)n2c(nc3ccccc32)c1C#N` gave an AC50 of 1.9 µM.
`CCCNc1nc2c(c(=O)n(C)c(=O)n2C)n1Cc1cccc(C)c1` was tested, and the AC50 was 1.91 µM.
`CCCOc1ccc(C(=O)NNC(=S)NC(=O)CC)cc1` showed an AC50 of 24.4 µM.
In the case of `NC(CCc1ccccc1)c1csc(NC(=O)Nc2ccccc2Oc2ccccc2)n1` (stereo not given), the AC50 is reported as 7.18 µM.
`O=C(Nc1ccc(Cl)c(Cl)c1)c1cccc(S(=O)(=O)NCc2cccnc2)c1` was tested, and the AC50 was 5.39 µM.
